Assay results published in the NIST ThermoML archive (doi:10.1021/je500696p).

Assays:
[1] = excess molar enthalpy (molar enthalpy of mixing); xn = mol fraction of the nth substance listed; conditions: 100 kPa, Liquid, Calvet calorimetry
[2] = xn = mol fraction of the nth substance listed; conditions: 100 kPa, Liquid, Vibrating tube method

CCCC[N+](C)(C)C.O=S(=O)([N-]S(=O)(=O)C(F)(F)F)C(F)(F)F [butyltrimethylammonium bis(trifluoromethylsulfonyl)imide] + CN(C)C=O
Conditions | excess molar enthalpy [kcal/mol] | mass density [kg/m3]
[1], 308.15 K, x2 = 0.1285 | -0.0987 | –
[1], 308.15 K, x2 = 0.2488 | -0.167 | –
[1], 308.15 K, x2 = 0.2496 | -0.168 | –
[1], 308.15 K, x2 = 0.2543 | -0.168 | –
[1], 308.15 K, x2 = 0.3983 | -0.232 | –
[1], 308.15 K, x2 = 0.5182 | -0.272 | –
[1], 308.15 K, x2 = 0.5211 | -0.272 | –
[1], 308.15 K, x2 = 0.6283 | -0.284 | –
[1], 308.15 K, x2 = 0.7679 | -0.253 | –
[1], 308.15 K, x2 = 0.889 | -0.162 | –
[1], 313.15 K, x2 = 0.1226 | -0.0961 | –
[1], 313.15 K, x2 = 0.2487 | -0.167 | –
[1], 313.15 K, x2 = 0.261 | -0.174 | –
[1], 313.15 K, x2 = 0.3939 | -0.232 | –
[1], 313.15 K, x2 = 0.5209 | -0.273 | –
[1], 313.15 K, x2 = 0.5249 | -0.275 | –
[1], 313.15 K, x2 = 0.625 | -0.286 | –
[1], 313.15 K, x2 = 0.7717 | -0.247 | –
[1], 313.15 K, x2 = 0.8796 | -0.174 | –
[1], 323.15 K, x2 = 0.129 | -0.102 | –
[1], 323.15 K, x2 = 0.2459 | -0.169 | –
[1], 323.15 K, x2 = 0.2473 | -0.169 | –
[1], 323.15 K, x2 = 0.3807 | -0.229 | –
[1], 323.15 K, x2 = 0.5174 | -0.278 | –
[1], 323.15 K, x2 = 0.5224 | -0.279 | –
[1], 323.15 K, x2 = 0.6286 | -0.291 | –
[1], 323.15 K, x2 = 0.7693 | -0.26 | –
[1], 323.15 K, x2 = 0.8804 | -0.176 | –
[2], 293.15 K, x2 = 0 | – | 1397.1
[2], 293.15 K, x2 = 0.1268 | – | 1379.7
[2], 293.15 K, x2 = 0.2011 | – | 1367.7
[2], 293.15 K, x2 = 0.3028 | – | 1348.7
[2], 293.15 K, x2 = 0.3824 | – | 1331.3
[2], 293.15 K, x2 = 0.5078 | – | 1297.4
[2], 293.15 K, x2 = 0.6249 | – | 1255.8
[2], 293.15 K, x2 = 0.7548 | – | 1191.6
[2], 293.15 K, x2 = 0.8764 | – | 1101.3
[2], 293.15 K, x2 = 0.9157 | – | 1061.9
[2], 295.15 K, x2 = 0 | – | 1395.3
[2], 295.15 K, x2 = 0.1268 | – | 1377.9
[2], 295.15 K, x2 = 0.2011 | – | 1365.9
[2], 295.15 K, x2 = 0.3028 | – | 1346.9
[2], 295.15 K, x2 = 0.3824 | – | 1329.5
[2], 295.15 K, x2 = 0.5078 | – | 1295.6
[2], 295.15 K, x2 = 0.6249 | – | 1253.9
[2], 295.15 K, x2 = 0.7548 | – | 1189.7
[2], 295.15 K, x2 = 0.8764 | – | 1099.4
[2], 295.15 K, x2 = 0.9157 | – | 1060
[2], 298.15 K, x2 = 0 | – | 1392.7
[2], 298.15 K, x2 = 0.1268 | – | 1375.3
[2], 298.15 K, x2 = 0.2011 | – | 1363.2
[2], 298.15 K, x2 = 0.3028 | – | 1344.2
[2], 298.15 K, x2 = 0.3824 | – | 1326.8
[2], 298.15 K, x2 = 0.5078 | – | 1292.8
[2], 298.15 K, x2 = 0.6249 | – | 1251.2
[2], 298.15 K, x2 = 0.7548 | – | 1186.8
[2], 298.15 K, x2 = 0.8764 | – | 1096.5
[2], 298.15 K, x2 = 0.9157 | – | 1057.1
[2], 303.15 K, x2 = 0 | – | 1388.3
[2], 303.15 K, x2 = 0.1268 | – | 1370.8
[2], 303.15 K, x2 = 0.2011 | – | 1358.8
[2], 303.15 K, x2 = 0.3028 | – | 1339.7
[2], 303.15 K, x2 = 0.3824 | – | 1322.2
[2], 303.15 K, x2 = 0.5078 | – | 1288.2
[2], 303.15 K, x2 = 0.6249 | – | 1246.5
[2], 303.15 K, x2 = 0.7548 | – | 1182.1
[2], 303.15 K, x2 = 0.8764 | – | 1091.8
[2], 303.15 K, x2 = 0.9157 | – | 1052.4
[2], 308.15 K, x2 = 0 | – | 1384
[2], 308.15 K, x2 = 0.1268 | – | 1366.4
[2], 308.15 K, x2 = 0.2011 | – | 1354.3
[2], 308.15 K, x2 = 0.3028 | – | 1335.2
[2], 308.15 K, x2 = 0.3824 | – | 1317.7
[2], 308.15 K, x2 = 0.5078 | – | 1283.6
[2], 308.15 K, x2 = 0.6249 | – | 1241.8
[2], 308.15 K, x2 = 0.7548 | – | 1177.4
[2], 308.15 K, x2 = 0.8764 | – | 1087
[2], 308.15 K, x2 = 0.9157 | – | 1047.6
[2], 313.15 K, x2 = 0 | – | 1379.6
[2], 313.15 K, x2 = 0.1268 | – | 1362
[2], 313.15 K, x2 = 0.2011 | – | 1349.9
[2], 313.15 K, x2 = 0.3028 | – | 1330.7
[2], 313.15 K, x2 = 0.3824 | – | 1313.1
[2], 313.15 K, x2 = 0.5078 | – | 1279
[2], 313.15 K, x2 = 0.6249 | – | 1237.2
[2], 313.15 K, x2 = 0.7548 | – | 1172.7
[2], 313.15 K, x2 = 0.8764 | – | 1082.3
[2], 313.15 K, x2 = 0.9157 | – | 1042.8
[2], 318.15 K, x2 = 0 | – | 1375.2
[2], 318.15 K, x2 = 0.1268 | – | 1357.6
[2], 318.15 K, x2 = 0.2011 | – | 1345.4
[2], 318.15 K, x2 = 0.3028 | – | 1326.2
[2], 318.15 K, x2 = 0.3824 | – | 1308.6
[2], 318.15 K, x2 = 0.5078 | – | 1274.5
[2], 318.15 K, x2 = 0.6249 | – | 1232.6
[2], 318.15 K, x2 = 0.7548 | – | 1168
[2], 318.15 K, x2 = 0.8764 | – | 1077.5
[2], 318.15 K, x2 = 0.9157 | – | 1038.1
[2], 323.15 K, x2 = 0 | – | 1370.9
[2], 323.15 K, x2 = 0.1268 | – | 1353.2
[2], 323.15 K, x2 = 0.2011 | – | 1341
[2], 323.15 K, x2 = 0.3028 | – | 1321.8
[2], 323.15 K, x2 = 0.3824 | – | 1304.1
[2], 323.15 K, x2 = 0.5078 | – | 1269.9
[2], 323.15 K, x2 = 0.6249 | – | 1227.9
[2], 323.15 K, x2 = 0.7548 | – | 1163.3
[2], 323.15 K, x2 = 0.8764 | – | 1072.8
[2], 323.15 K, x2 = 0.9157 | – | 1033.3
[2], 328.15 K, x2 = 0 | – | 1366.6
[2], 328.15 K, x2 = 0.1268 | – | 1348.8
[2], 328.15 K, x2 = 0.2011 | – | 1336.6
[2], 328.15 K, x2 = 0.3028 | – | 1317.3
[2], 328.15 K, x2 = 0.3824 | – | 1299.7
[2], 328.15 K, x2 = 0.5078 | – | 1265.4
[2], 328.15 K, x2 = 0.6249 | – | 1223.3
[2], 328.15 K, x2 = 0.7548 | – | 1158.6
[2], 328.15 K, x2 = 0.8764 | – | 1068
[2], 328.15 K, x2 = 0.9157 | – | 1028.6
[2], 333.15 K, x2 = 0 | – | 1362.3
[2], 333.15 K, x2 = 0.1268 | – | 1344.5
[2], 333.15 K, x2 = 0.2011 | – | 1332.3
[2], 333.15 K, x2 = 0.3028 | – | 1312.9
[2], 333.15 K, x2 = 0.3824 | – | 1295.2
[2], 333.15 K, x2 = 0.5078 | – | 1260.8
[2], 333.15 K, x2 = 0.6249 | – | 1218.7
[2], 333.15 K, x2 = 0.7548 | – | 1153.9
[2], 333.15 K, x2 = 0.8764 | – | 1063.3
[2], 333.15 K, x2 = 0.9157 | – | 1023.8
